Values of other authors as cited in patent US20140199404A1, “METHOD FOR TREATING CANCER BASED ON LEVEL OF A NUCLEOSIDE TRANSPORTER” (ABRAXIS BIOSCIENCE, LLC, priority 2013, published 2014).

What was measured:
[1] = system: locally advanced pancreatic cancer; conditions: patients with locally advanced pancreatic cancer
pancreatic cancer = conditions: Moore et al. 2007

Row | Compound | median overall survival [1] [months] | median time to disease progression [1] [months] | median overall survival (pancreatic cancer) [months] | median progression free survival (pancreatic cancer) [months]
1 | O=c1[nH]cc(F)c(=O)[nH]1 [5-FU, 5-fluororuracil] | 4.2 | 0.9 |  | 
2 | Nc1ccn([C@@H]2O[C@H](CO)[C@@H](O)C2(F)F)c(=O)n1 [gemcitabine] | 5.7 | 2.1 | 6.0 | 3.5
